From ChEMBL document CHEMBL1145880, “Aryl piperazine melanocortin MC4 receptor agonists” (Bioorg Med Chem Lett, 2003) come the findings set out here.

Test [1] has as its target Melanocortin receptor 5 (Homo sapiens, UniProt P33032). Nature of the test: In vitro cAMP accumulation in HEK cells transfected with human Melanocortin 5 receptor (hMC5R). It counts as functional, cell-based, HEK293.
Test [2] concerns the target Melanocortin receptor 4 (Mus musculus, UniProt P56450). Nature of the test: In vitro cAMP accumulation in Y1 cells transfected with mouse Melanocortin 4 receptor (mMC4R). It is filed as functional, cell-based.
Test [3] deals with T1, Melanocortin receptor 4 (Homo sapiens, UniProt P32245). The test can be described thus: cAMP accumulation in HEK cells transfected with human melanocortin 4 receptor (hMC4R) with respect to alpha-MSH. It counts as functional, cell-based. The following applies: HEK293.
T1 sequence (P32245 whole entry): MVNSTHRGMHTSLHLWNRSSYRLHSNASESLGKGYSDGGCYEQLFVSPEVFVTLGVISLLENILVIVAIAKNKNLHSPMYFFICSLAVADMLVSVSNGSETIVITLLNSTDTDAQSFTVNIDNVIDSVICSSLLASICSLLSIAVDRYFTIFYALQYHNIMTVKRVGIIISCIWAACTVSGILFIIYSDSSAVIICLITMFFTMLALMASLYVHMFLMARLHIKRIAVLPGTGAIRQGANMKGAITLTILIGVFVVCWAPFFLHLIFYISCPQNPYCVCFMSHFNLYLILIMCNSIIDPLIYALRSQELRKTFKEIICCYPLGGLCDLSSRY
Test [4] addresses Adrenocorticotropic hormone receptor (Mus musculus, UniProt Q64326). The test can be described thus: In vitro cAMP accumulation in Y1 cells transfected with mouse Melanocortin 2 receptor (mMC2R). It counts as functional, cell-based.
Test [5] addresses Melanocortin receptor 3 (Homo sapiens, UniProt P41968). Nature of the test: In vitro cAMP accumulation in HEK cells transfected with human Melanocortin 3 receptor (hMC3R). It counts as functional, cell-based, HEK293.
Test [6] deals with Melanocyte-stimulating hormone receptor (Homo sapiens, UniProt Q01726). The test can be described thus: In vitro cAMP accumulation in HEK cells transfected with human Melanocortin 1 receptor (hMC1R). It counts as functional, cell-based, HEK293.
Chain of Melanocyte-stimulating hormone receptor (Q01726 whole entry): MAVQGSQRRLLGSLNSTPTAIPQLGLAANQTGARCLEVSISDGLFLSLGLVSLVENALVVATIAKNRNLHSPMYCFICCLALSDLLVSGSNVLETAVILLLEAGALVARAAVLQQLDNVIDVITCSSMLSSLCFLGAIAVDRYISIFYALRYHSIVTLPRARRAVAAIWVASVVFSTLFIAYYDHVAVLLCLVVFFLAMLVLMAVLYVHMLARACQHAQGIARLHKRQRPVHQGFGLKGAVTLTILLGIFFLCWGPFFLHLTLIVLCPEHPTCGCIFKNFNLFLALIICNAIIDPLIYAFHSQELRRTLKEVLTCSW
For test [7], the target named is T1, Melanocortin receptor 4. Nature of the test: Agonistic activity measured as […] cAMP accumulation in HEK cells expressing human Melanocortin 4 receptor (hMC4R). It counts as functional, cell-based, HEK293.
In test [8] the target is T1, Melanocortin receptor 4. Nature of the test: cAMP accumulation in HEK cells transfected with human Melanocortin 4 receptor (hMC4R) with respect to alpha-MSH. It counts as functional, cell-based. The following applies: HEK293.

Chain of Adrenocorticotropic hormone receptor (Q64326 whole entry): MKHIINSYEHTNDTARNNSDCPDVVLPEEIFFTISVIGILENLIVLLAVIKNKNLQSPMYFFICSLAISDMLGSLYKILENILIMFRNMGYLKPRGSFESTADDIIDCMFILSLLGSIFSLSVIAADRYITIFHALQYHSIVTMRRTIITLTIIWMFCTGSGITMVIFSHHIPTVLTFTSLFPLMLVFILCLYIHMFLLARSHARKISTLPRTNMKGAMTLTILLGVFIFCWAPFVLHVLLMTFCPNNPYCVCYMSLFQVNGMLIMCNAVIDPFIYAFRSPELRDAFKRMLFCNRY
Chain of Melanocortin receptor 5 (P33032 whole entry): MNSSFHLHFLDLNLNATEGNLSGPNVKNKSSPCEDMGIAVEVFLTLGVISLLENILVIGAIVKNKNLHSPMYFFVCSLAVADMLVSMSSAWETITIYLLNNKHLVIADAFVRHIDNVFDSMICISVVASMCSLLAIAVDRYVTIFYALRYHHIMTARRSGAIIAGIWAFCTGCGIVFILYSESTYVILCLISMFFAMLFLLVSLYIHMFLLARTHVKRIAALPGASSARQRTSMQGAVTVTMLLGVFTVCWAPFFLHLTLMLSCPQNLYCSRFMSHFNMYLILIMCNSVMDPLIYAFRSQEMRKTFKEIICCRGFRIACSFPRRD
Chain of Melanocortin receptor 4 (Mus musculus, UniProt P56450) (P56450 whole entry): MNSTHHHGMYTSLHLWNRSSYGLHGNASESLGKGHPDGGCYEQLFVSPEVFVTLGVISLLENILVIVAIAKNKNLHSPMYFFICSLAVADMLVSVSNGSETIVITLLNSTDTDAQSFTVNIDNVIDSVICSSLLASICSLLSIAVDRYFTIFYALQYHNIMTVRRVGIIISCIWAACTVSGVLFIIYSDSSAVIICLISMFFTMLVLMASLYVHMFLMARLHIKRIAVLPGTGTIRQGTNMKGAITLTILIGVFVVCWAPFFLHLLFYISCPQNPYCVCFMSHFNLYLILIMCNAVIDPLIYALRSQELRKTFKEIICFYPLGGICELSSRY
Chain of Melanocortin receptor 3 (P41968 whole entry): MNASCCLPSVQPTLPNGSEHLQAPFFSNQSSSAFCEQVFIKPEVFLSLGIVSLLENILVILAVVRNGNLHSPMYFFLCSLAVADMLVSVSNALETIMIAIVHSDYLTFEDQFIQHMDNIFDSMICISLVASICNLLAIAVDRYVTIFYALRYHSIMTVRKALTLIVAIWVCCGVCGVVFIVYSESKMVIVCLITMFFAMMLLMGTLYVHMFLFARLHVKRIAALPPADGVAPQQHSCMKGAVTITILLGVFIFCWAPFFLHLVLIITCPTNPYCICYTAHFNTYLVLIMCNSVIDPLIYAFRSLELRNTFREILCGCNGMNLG

Regarding `O=C(N[C@H](Cc1ccc(Cl)cc1)C(=O)N1CCN(c2ccccc2Cn2cncn2)CC1)[C@H]1Cc2ccccc2CN1`, the EC50 in test [1] is > 3000 nM; in test [2], 59 nM; in test [4], > 10 µM; in test [5], > 3 µM; in test [6], > 3 µM; in test [7], 80 nM. This molecule also registered a Stimulation in test [3] of 100%.

`O=C(N[C@H](Cc1ccc(Cl)cc1)C(=O)N1CCN(c2c(Cn3cncn3)ccc3ccccc23)CC1)[C@H]1Cc2ccccc2CN1`: in test [3], the Stimulation turned out to be 100%. Besides, in test [7], the response was half-maximal at 170 nM (EC50).

The molecule `CCOC(=O)NC(=O)Nc1ccccc1N1CCN(C(=O)[C@@H](Cc2ccc(Cl)cc2)NC(=O)[C@H]2Cc3ccccc3CN2)CC1` gave a Stimulation in test [3] of 24%. Besides, the EC50 in test [7] came to 650 nM.

In turn, `O=C(N[C@H](Cc1ccc(Cl)cc1)C(=O)N1CCN(c2ccc(C(F)(F)F)cc2Cn2cncn2)CC1)[C@H]1Cc2ccccc2CN1` yielded a Stimulation in test [3] of 100%. Also, the EC50 in test [7] turned out to be 680 nM.

In test [3], `COc1ccc(Cn2cncn2)c(N2CCN(C(=O)[C@@H](Cc3ccc(Cl)cc3)NC(=O)[C@H]3Cc4ccccc4CN3)CC2)c1` yielded a Stimulation of 100%. The molecule further came in with an EC50 in test [7] of 110 nM.

As for `COC(=O)C(=O)Nc1ccccc1N1CCN(C(=O)[C@@H](Cc2ccc(Cl)cc2)NC(=O)[C@H]2Cc3ccccc3CN2)CC1`, the Stimulation in test [3] stood at 55%. The molecule further had an EC50 in test [7] of 1600 nM.

Take `CC(=O)Nc1ccccc1N1CCN(C(=O)[C@@H](Cc2ccc(Cl)cc2)NC(=O)[C@H]2Cc3ccccc3CN2)CC1`: the Stimulation in test [3] was 64%. The response in test [7] was half-maximal at 1900 nM (EC50).

With `O=C(NCc1ccccc1)Nc1ccccc1N1CCN(C(=O)[C@@H](Cc2ccc(Cl)cc2)NC(=O)[C@H]2Cc3ccccc3CN2)CC1`, the Stimulation in test [3] amounted to 62%. The molecule further returned an EC50 in test [7] of 1000 nM.

In turn, `CN(c1ccccc1N1CCN(C(=O)[C@@H](Cc2ccc(Cl)cc2)NC(=O)[C@H]2Cc3ccccc3CN2)CC1)S(C)(=O)=O` registered a Stimulation in test [3] of 100%. Also, the EC50 in test [7] was 520 nM.

Take `CCN(Cc1ccccc1N1CCN(C(=O)[C@@H](Cc2ccc(Cl)cc2)NC(=O)[C@H]2Cc3ccccc3CN2)CC1)S(C)(=O)=O`: the Stimulation in test [3] was 100%. Besides, the EC50 in test [7] was 690 nM.

`CCC(C)N(Cc1ccccc1N1CCN(C(=O)[C@@H](Cc2ccc(Cl)cc2)NC(=O)[C@H]2Cc3ccccc3CN2)CC1)S(C)(=O)=O` (stereo partly drawn) yielded a Stimulation in test [3] of 100%. In test [7], the response was half-maximal at 1000 nM (EC50).

Molecule `CCC(CC)N(Cc1ccccc1N1CCN(C(=O)[C@@H](Cc2ccc(Cl)cc2)NC(=O)[C@H]2Cc3ccccc3CN2)CC1)S(C)(=O)=O` had a Stimulation in test [3] of 100%. Further, the EC50 in test [7] was 2200 nM.

Regarding `O=C(N[C@H](Cc1ccc(Cl)cc1)C(=O)N1CCN(c2ccccc2NS(=O)(=O)C(F)(F)F)CC1)[C@H]1Cc2ccccc2CN1`, the Stimulation in test [3] came to 34%. In test [7], this molecule returned an EC50 of 4400 nM.

Turning to `CS(=O)(=O)Nc1ccccc1N1CCN(C(=O)[C@@H](Cc2ccc(Cl)cc2)NC(=O)[C@H]2Cc3ccccc3CN2)CC1`, the Stimulation in test [3] came to 100%. Moreover, a half-maximal effect in test [7] (EC50) was put at 380 nM.

Consider `CC(C)(C)CN(Cc1ccccc1N1CCN(C(=O)[C@@H](Cc2ccc(Cl)cc2)NC(=O)[C@H]2Cc3ccccc3CN2)CC1)S(C)(=O)=O`, for which, in test [3], the Stimulation was 100%. Moreover, in test [7], the midpoint of the response, the EC50, lay at 2400 nM.

For `O=C(Nc1ccccc1N1CCN(C(=O)[C@@H](Cc2ccc(Cl)cc2)NC(=O)[C@H]2Cc3ccccc3CN2)CC1)c1cccnc1`, the Stimulation in test [3] turned out to be 83%. Besides, in test [7], the EC50 was determined as 1100 nM.

`O=C(N[C@H](Cc1ccc(Cl)cc1)C(=O)N1CCC(Cn2cncn2)(C2CCCCC2)CC1)[C@H]1Cc2ccccc2CN1`: the EC50 is 2700 nM in test [1], 7.6 nM in test [2] and > 10 µM in test [4]. In test [3], this molecule registered a Stimulation of 100%.

The molecule `O=C(N[C@H](Cc1ccc(Cl)cc1)C(=O)N1CCN(c2cccc(Cl)c2Cn2cncn2)CC1)[C@H]1Cc2ccccc2CN1` showed a Stimulation in test [3] of 70%. This molecule gave an EC50 in test [7] of 470 nM.

`O=C(Nc1ccccc1N1CCN(C(=O)[C@@H](Cc2ccc(Cl)cc2)NC(=O)[C@H]2Cc3ccccc3CN2)CC1)c1ccncc1`: the Fold stimulation in test [8] came out at 30%.

Take `O=C(N[C@H](Cc1ccc(Cl)cc1)C(=O)N1CCN(c2ccccc2Cn2cnnc2)CC1)[C@H]1Cc2ccccc2CN1`: the EC50 was > 3000 nM in test [1]; 38 nM in test [2]; > 10 µM in test [4]; > 3 µM in test [5]; > 3 µM in test [6]; 24 nM in test [7]. The Stimulation in test [3] was 100%.

In the case of `O=C(Nc1ccccc1N1CCN(C(=O)[C@@H](Cc2ccc(Cl)cc2)NC(=O)[C@H]2Cc3ccccc3CN2)CC1)C1CC1`, in test [8], the Fold stimulation was found to be 21%.

Consider `CCOC(=O)CNC(=O)Nc1ccccc1N1CCN(C(=O)[C@@H](Cc2ccc(Cl)cc2)NC(=O)[C@H]2Cc3ccccc3CN2)CC1`, for which the Stimulation in test [3] was determined as 68%. Further, it took 2100 nM to reach a half-maximal effect in test [7] (EC50).

On to `CC(C)S(=O)(=O)Nc1ccccc1N1CCN(C(=O)[C@@H](Cc2ccc(Cl)cc2)NC(=O)[C@H]2Cc3ccccc3CN2)CC1`, for which the Stimulation in test [3] turned out to be 85%. This molecule also had an EC50 in test [7] of 440 nM.

Regarding `CS(=O)(=O)N1CC2(CCN(C(=O)[C@@H](Cc3ccc(Cl)cc3)NC(=O)[C@H]3Cc4ccccc4CN3)CC2)c2ccccc21`, the Stimulation in test [3] was 100%. The same molecule registered a concentration for a half-maximal effect (EC50) in test [7] of 190 nM.

In test [3], `COCC(=O)Nc1ccccc1N1CCN(C(=O)[C@@H](Cc2ccc(Cl)cc2)NC(=O)[C@H]2Cc3ccccc3CN2)CC1` showed a Stimulation of 34%. Also, in test [7], the EC50 was 600 nM.

Molecule `CN(C)C(=O)Nc1ccccc1N1CCN(C(=O)[C@@H](Cc2ccc(Cl)cc2)NC(=O)[C@H]2Cc3ccccc3CN2)CC1` came in with a Fold stimulation in test [8] of 7%.

With `CC(C)CN(Cc1ccccc1N1CCN(C(=O)[C@@H](Cc2ccc(Cl)cc2)NC(=O)[C@H]2Cc3ccccc3CN2)CC1)S(C)(=O)=O`, the Stimulation in test [3] came out at 100%. For the same molecule, the EC50 in test [7] was 380 nM.
